“And” between values parts separate entries of the source, which are not always exact repeats. Identical values can stand only once.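 Following 48 hours of exposure in 96-well plates, responses at five concentrations were used to interpolate endpoints linearly. The concentration for 50% growth inhibition is given as GI50. The concentration for full growth arrest is given as TGI.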

The first test deals with NCI/ADR-RES ovarian. Put plainly: growth of human tumour cells (NCI), 48 h.
`C1=C\COCc2cc(ccc2OCCN2CCCC2)Nc2nccc(n2)-c2cccc(c2)COC/1`: the GI50 was 2.77 µM and the TGI was determined as 7.35 µM.
For the compound `COc1ccc(-c2coc3c4c(ccc3c2=O)OCO4)cc1OC`, the TGI is greater than 100 µM.
Regarding `CC(C)(S)C(N)C(=O)O` (configuration not stated), the GI50 is 3650 µM and the TGI was greater than 5000 µM.
In the case of `CN1C(=O)/C(=C/c2c(Cl)n(C)c3ccccc23)c2ccccc21`, the GI50 is 1.92 µM and the TGI came out at 5.17 µM.
Regarding `Cc1nc(-[n+]2nc(-c3ccncc3)nn2-c2ccccc2)sc1C`, the TGI was greater than 100 µM.
As to `COc1cc2c3c(n(CCCOC(=O)C(F)(F)F)c(=O)c2cc1OC)-c1cc2c(cc1C3=O)OCO2`, the GI50 is less than 0.0289 µM and the TGI amounted to 0.137 µM.
The like results for `CCOC(=O)/C=C(/C)Sc1cc(O)c2ccccc2c1O` were, in that order, 3.99 µM and 25.2 µM.
As for `N=C(N)c1ccc2nc(-c3cc(CC(=O)N[C@@H](CC(=O)O)C(=O)O)cc(-c4cc(S(N)(=O)=O)ccc4O)c3O)[nH]c2c1`, the GI50 was greater than 100 µM and the TGI is greater than 100 µM.
`O=C(O)c1ccc(OCc2ccccc2)c(Cl)c1` showed a TGI greater than 100 µM.
`OCCCNc1nccc(-c2c(-c3ccc(F)cc3)nn3cc(C(F)(F)F)ccc23)n1`: the GI50 is 8.25 µM and the TGI was greater than 25 µM.
The like results for `O=S(=O)(Nc1ccc(F)cc1F)c1ccc(-c2cnc(C3CC3)o2)cc1` were, in that order, 0.394 µM and 15 µM.
Take `CCOc1ccncc1[N+](=O)[O-]`: the TGI was greater than 100 µM.
Compound `C=C1C(=O)OC2CC(C)C3(O)CCC(=O)C3(C)CC12` (configuration not stated) registered a TGI greater than 100 µM.
Compound `Cc1nc2sc3c(c2c(=O)[nH]1)CCCC3` yielded a TGI greater than 100 µM.
With `O=C1NC(=O)/C(=C\c2ccccc2)C2=C1CCCC2`, the GI50 is 7.54 µM and the TGI stood at 19.2 µM.
Compound `O=CN1CCN(CC(O)CN2CCCCC2)CC1` (configuration not stated) displayed a TGI greater than 100 µM.

In the next test the test system is OVCAR-5 ovarian. Put plainly: growth of human tumour cells (NCI), 48 h.
As to `CCn1c(=O)c2c(=O)c3c4c(oc3oc2c2ccccc21)C(=O)c1ccccc1C4=O`, the GI50 was greater than 100 µM and the TGI is greater than 100 µM.
For `NC(=O)c1cc(S(=O)(=O)Nc2nnc(-c3ccccc3)c(-c3ccccc3)n2)c(SCc2ccccc2)cc1Cl`, the GI50 is greater than 100 µM and the TGI was greater than 100 µM.
For `C1=C\COCc2cc(ccc2OCCN2CCCC2)Nc2nccc(n2)-c2cccc(c2)COC/1`, the GI50 was 1.16 µM and the TGI came out at 5.38 µM.
Regarding `COc1ccc(-c2coc3c4c(ccc3c2=O)OCO4)cc1OC`, the TGI is greater than 100 µM.
On to `CC(C)(S)C(N)C(=O)O` (configuration not stated), for which the GI50 was greater than 5000 µM and the TGI is greater than 5000 µM.
On to `CN1C(=O)/C(=C/c2c(Cl)n(C)c3ccccc23)c2ccccc21`, for which the GI50 is 3.61 µM and 1.85 µM; the TGI was 3.25 µM.
Turning to `Cc1nc(-[n+]2nc(-c3ccncc3)nn2-c2ccccc2)sc1C`, the TGI was greater than 100 µM.
For the compound `COc1cc2c3c(n(CCCOC(=O)C(F)(F)F)c(=O)c2cc1OC)-c1cc2c(cc1C3=O)OCO2`, the GI50 was 0.14 µM and the TGI stood at 43.8 µM.
On to `CCOC(=O)/C=C(/C)Sc1cc(O)c2ccccc2c1O`, for which the GI50 is 17.5 µM and the TGI is 34 µM.
For `N=C(N)c1ccc2nc(-c3cc(CC(=O)N[C@@H](CC(=O)O)C(=O)O)cc(-c4cc(S(N)(=O)=O)ccc4O)c3O)[nH]c2c1` the same measures were greater than 100 µM and greater than 100 µM.
On to `O=C(O)c1ccc(OCc2ccccc2)c(Cl)c1`, for which the TGI was greater than 100 µM.
For the compound `OCCCNc1nccc(-c2c(-c3ccc(F)cc3)nn3cc(C(F)(F)F)ccc23)n1`, the GI50 was greater than 22.9 µM and the TGI was greater than 25 µM.
Take `O=S(=O)(Nc1ccc(F)cc1F)c1ccc(-c2cnc(C3CC3)o2)cc1`: the GI50 is 2.71 µM and the TGI was greater than 100 µM.
`CCOc1ccncc1[N+](=O)[O-]` yielded a TGI greater than 100 µM.
`C=C1C(=O)OC2CC(C)C3(O)CCC(=O)C3(C)CC12` (configuration not stated): the TGI stood at 74.3 µM.
For the compound `Cc1nc2sc3c(c2c(=O)[nH]1)CCCC3`, the TGI was greater than 100 µM.
As to `O=C1NC(=O)/C(=C\c2ccccc2)C2=C1CCCC2`, the GI50 was 3.53 µM and the TGI was 12 µM.
`O=CN1CCN(CC(O)CN2CCCCC2)CC1` (configuration not stated) yielded a TGI greater than 100 µM.

Another test has as its system SF-295 CNS. Put plainly: growth of human tumour cells (NCI), 48 h.
As to `CCn1c(=O)c2c(=O)c3c4c(oc3oc2c2ccccc21)C(=O)c1ccccc1C4=O`, the GI50 was greater than 24.2 µM and the TGI was greater than 100 µM.
The like results for `NC(=O)c1cc(S(=O)(=O)Nc2nnc(-c3ccccc3)c(-c3ccccc3)n2)c(SCc2ccccc2)cc1Cl` were, in that order, greater than 57.7 µM and greater than 100 µM.
Turning to `C1=C\COCc2cc(ccc2OCCN2CCCC2)Nc2nccc(n2)-c2cccc(c2)COC/1`, the GI50 was 3.34 µM and the TGI was 5.94 µM.
In turn, `COc1ccc(-c2coc3c4c(ccc3c2=O)OCO4)cc1OC` showed a TGI greater than 100 µM.
`CC(C)(S)C(N)C(=O)O` (configuration not stated): the GI50 was 963 µM; the TGI was 3660 µM and > 100 µM.
For the compound `CN1C(=O)/C(=C/c2c(Cl)n(C)c3ccccc23)c2ccccc21`, the GI50 is 2.74 µM and 1.58 µM; the TGI is 7.76 µM and 2.99 µM.
In the case of `Cc1nc(-[n+]2nc(-c3ccncc3)nn2-c2ccccc2)sc1C`, the TGI is greater than 100 µM.
`COc1cc2c3c(n(CCCOC(=O)C(F)(F)F)c(=O)c2cc1OC)-c1cc2c(cc1C3=O)OCO2`: the GI50 is less than 0.01 µM and the TGI was 0.721 µM.
In the case of `CCOC(=O)/C=C(/C)Sc1cc(O)c2ccccc2c1O`, the GI50 is 12.4 µM and the TGI came out at 26.4 µM.
Regarding `N=C(N)c1ccc2nc(-c3cc(CC(=O)N[C@@H](CC(=O)O)C(=O)O)cc(-c4cc(S(N)(=O)=O)ccc4O)c3O)[nH]c2c1`, the GI50 was greater than 100 µM and the TGI is greater than 100 µM.
For `O=C(O)c1ccc(OCc2ccccc2)c(Cl)c1`, the TGI is greater than 100 µM.
On to `OCCCNc1nccc(-c2c(-c3ccc(F)cc3)nn3cc(C(F)(F)F)ccc23)n1`, for which the GI50 is 10.3 µM and the TGI is greater than 25 µM.
The like results for `O=S(=O)(Nc1ccc(F)cc1F)c1ccc(-c2cnc(C3CC3)o2)cc1` were, in that order, 0.359 µM and 5.53 µM.
`CCOc1ccncc1[N+](=O)[O-]` displayed a TGI greater than 100 µM.
In the case of `C=C1C(=O)OC2CC(C)C3(O)CCC(=O)C3(C)CC12` (configuration not stated), the TGI is greater than 100 µM.
On the same count and under the same terms, with `Cc1nc2sc3c(c2c(=O)[nH]1)CCCC3` the figure was greater than 100 µM.
In the case of `O=C1NC(=O)/C(=C\c2ccccc2)C2=C1CCCC2`, the GI50 is 3.98 µM and the TGI is 17.6 µM.
For the compound `O=CN1CCN(CC(O)CN2CCCCC2)CC1` (configuration not stated), the TGI was greater than 100 µM.

In the next test the test system is SW-620 colon. The test can be described thus: growth of human tumour cells (NCI), 48 h.
Consider `CCn1c(=O)c2c(=O)c3c4c(oc3oc2c2ccccc21)C(=O)c1ccccc1C4=O`, for which the GI50 was greater than 100 µM and the TGI is greater than 100 µM.
For `NC(=O)c1cc(S(=O)(=O)Nc2nnc(-c3ccccc3)c(-c3ccccc3)n2)c(SCc2ccccc2)cc1Cl`, the GI50 was greater than 56.1 µM and the TGI is greater than 100 µM.
The like results for `C1=C\COCc2cc(ccc2OCCN2CCCC2)Nc2nccc(n2)-c2cccc(c2)COC/1` were, in that order, 1.48 µM and 6.07 µM.
Consider `COc1ccc(-c2coc3c4c(ccc3c2=O)OCO4)cc1OC`, for which the TGI is greater than 100 µM.
Turning to `CC(C)(S)C(N)C(=O)O` (configuration not stated), the GI50 was 2220 µM and the TGI is greater than 5000 µM.
For the compound `CN1C(=O)/C(=C/c2c(Cl)n(C)c3ccccc23)c2ccccc21`, the GI50 was 5.07 µM.
In the case of `Cc1nc(-[n+]2nc(-c3ccncc3)nn2-c2ccccc2)sc1C`, the TGI was greater than 100 µM.
Compound `COc1cc2c3c(n(CCCOC(=O)C(F)(F)F)c(=O)c2cc1OC)-c1cc2c(cc1C3=O)OCO2` displayed a TGI greater than 100 µM.
As for `CCOC(=O)/C=C(/C)Sc1cc(O)c2ccccc2c1O`, the GI50 is 2.3 µM and the TGI was found to be 5.39 µM.
For `N=C(N)c1ccc2nc(-c3cc(CC(=O)N[C@@H](CC(=O)O)C(=O)O)cc(-c4cc(S(N)(=O)=O)ccc4O)c3O)[nH]c2c1` the same measures were greater than 100 µM and greater than 100 µM.
`O=C(O)c1ccc(OCc2ccccc2)c(Cl)c1` yielded a TGI greater than 100 µM.
As for `OCCCNc1nccc(-c2c(-c3ccc(F)cc3)nn3cc(C(F)(F)F)ccc23)n1`, the GI50 is greater than 25 µM and the TGI is greater than 25 µM.
For the compound `O=S(=O)(Nc1ccc(F)cc1F)c1ccc(-c2cnc(C3CC3)o2)cc1`, the GI50 was 0.395 µM and the TGI is greater than 100 µM.
`CCOc1ccncc1[N+](=O)[O-]`: the TGI was greater than 100 µM.
Compound `C=C1C(=O)OC2CC(C)C3(O)CCC(=O)C3(C)CC12` (configuration not stated) yielded a TGI greater than 100 µM.
The same measure, in the same setting: with `Cc1nc2sc3c(c2c(=O)[nH]1)CCCC3` the figure was greater than 100 µM.
Regarding `O=C1NC(=O)/C(=C\c2ccccc2)C2=C1CCCC2`, the GI50 is 2.37 µM and the TGI came out at 6.94 µM.
`O=CN1CCN(CC(O)CN2CCCCC2)CC1` (configuration not stated) gave a TGI greater than 100 µM.

Another test relates to T-47D breast. The test can be described thus: growth of human tumour cells (NCI), 48 h.
As to `CCn1c(=O)c2c(=O)c3c4c(oc3oc2c2ccccc21)C(=O)c1ccccc1C4=O`, the GI50 was 0.372 µM and the TGI is 2.87 µM.
Consider `NC(=O)c1cc(S(=O)(=O)Nc2nnc(-c3ccccc3)c(-c3ccccc3)n2)c(SCc2ccccc2)cc1Cl`, for which the GI50 is greater than 100 µM and the TGI is greater than 100 µM.
For `C1=C\COCc2cc(ccc2OCCN2CCCC2)Nc2nccc(n2)-c2cccc(c2)COC/1`, the GI50 was 1.37 µM and the TGI was 5.12 µM.
In turn, `COc1ccc(-c2coc3c4c(ccc3c2=O)OCO4)cc1OC` gave a TGI greater than 100 µM.
In the case of `CC(C)(S)C(N)C(=O)O` (configuration not stated), the GI50 was 1170 µM; the TGI is 2680 µM and > 100 µM.
`CN1C(=O)/C(=C/c2c(Cl)n(C)c3ccccc23)c2ccccc21` yielded a TGI of 0.825 µM.
Still for that read-out and setting: to `Cc1nc(-[n+]2nc(-c3ccncc3)nn2-c2ccccc2)sc1C` belongs greater than 100 µM; to `COc1cc2c3c(n(CCCOC(=O)C(F)(F)F)c(=O)c2cc1OC)-c1cc2c(cc1C3=O)OCO2`, greater than 28.2 µM.
Consider `CCOC(=O)/C=C(/C)Sc1cc(O)c2ccccc2c1O`, for which the GI50 was 2.23 µM and the TGI worked out at 13.1 µM.
For `N=C(N)c1ccc2nc(-c3cc(CC(=O)N[C@@H](CC(=O)O)C(=O)O)cc(-c4cc(S(N)(=O)=O)ccc4O)c3O)[nH]c2c1` the same measures were greater than 100 µM and greater than 100 µM.
With `O=C(O)c1ccc(OCc2ccccc2)c(Cl)c1`, the TGI was greater than 100 µM.
Regarding `OCCCNc1nccc(-c2c(-c3ccc(F)cc3)nn3cc(C(F)(F)F)ccc23)n1`, the GI50 is 8.42 µM and the TGI is greater than 23.4 µM.
The like results for `O=S(=O)(Nc1ccc(F)cc1F)c1ccc(-c2cnc(C3CC3)o2)cc1` were, in that order, 0.443 µM and 52.8 µM.
Take `CCOc1ccncc1[N+](=O)[O-]`: the TGI was greater than 100 µM.
Compound `C=C1C(=O)OC2CC(C)C3(O)CCC(=O)C3(C)CC12` (configuration not stated) displayed a TGI greater than 100 µM.
On the same count and under the same terms, with `Cc1nc2sc3c(c2c(=O)[nH]1)CCCC3` the figure was greater than 100 µM.
As for `O=C1NC(=O)/C(=C\c2ccccc2)C2=C1CCCC2`, the GI50 is 10.2 µM and the TGI was found to be 29.9 µM.
With `O=CN1CCN(CC(O)CN2CCCCC2)CC1` (configuration not stated), the TGI is greater than 100 µM.

(Values after PubChem BioAssay (NCI).)
